# Source: patent publication US20130109682A1, “CYCLIC ETHER COMPOUNDS USEFUL AS KINASE INHIBITORS” (NOVARTIS AG, priority 2010, published 2013)
# pEC50, pIC50: −log10 of the molar value. Read-outs that look alike come from different tables or passages of the source.
# Assays:
# cABLT315 kinase = cABLT315 kinase (Homo sapiens, UniProt P00519); assay: cABLT315 kinase Caliper assay; assay type: biochemical
# Protocol: PKCα and cABLT315 Kinase Caliper Assays
# Assays were performed in 384 well microtiter plates. Each assay plate contained 8-point serial dilutions for test compounds, as well as two 16-point serial dilutions of staurosporine as reference compound, plus 16 high- and 16 low controls. Liquid handling and incubation steps were done on a Thermo CatX workstation equipped with a Innovadyne Nanodrop Express. Between pipetting steps, tips were cleaned in wash cycles using wash buffer. Plates with terminated kinase reactions were transferred to the Caliper LC3000 workstations for reading. Phosphorylated and unphosphorylated peptides were separated using the Caliper microfluidic mobilitishift technology and Kinase activities were calculated from the amounts of formed phospho-peptide.
# Kinase reactions were prepared in 384 low volume plates by the following sequence:
# 1. 0.05 μA Compound (start with 1.8 mM in 90% DMSO/10% H2O)
# 2. +4.5 μl 2× peptide/ATP solution
# 3. +4.5 μl 2× enzyme solution
# 4. Incubate for 60 min at 30° C.
# 4. +16 μl stop/run buffer
# Independent of the kinase, all reactions were done performed in 50 mM HEPES, pH 7.5, 1 mM DTT, 0.02% Tween20, 0.02% BSA, and 0.6% DMSO. For cABLT315 assay specific details were as follows: [cABLT315 kinase]=2.4 nM, [ATP]=10 uM, [peptide]=2 uM, [Mg]=10 mM. For PKCα, assay specific details were as follows: [kinase]=0.012 nM, [ATP]=17 uM, [peptide]=1 uM, [Mg]=7 mM, [Ca]=0.2 mM.
# [1] = system: KMS11 (human myeloma cell line); assay: Cell proliferation assay (CellTiter-Glo), KMS11; assay type: cell-based; conditions: Homo sapiens, KMS-11
# How it was run: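 KMS11 cells in IMDM with 10% FBS and sodium pyruvate, seeded at 2000 cells/well on assay day. Compound added at 2× to equal volume of cells, incubated 3 days at 37° C. Viability read by CellTiter-Glo luminescence; EC50 derived.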
# PIM2 = PIM2 (Homo sapiens, UniProt Q9P1W9); assay: Pim 2 AlphaScreen assay (high ATP); assay type: biochemical; conditions: read-out: Pim2 IC50
# How it was run: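 This is a bead-based AlphaScreen run at high ATP (11-125× Km) with biotin-Bad peptide (100 nM in the substrate mix), in 50 mM Hepes pH 7.5, 5 mM MgCl2, 0.05% BSA, 0.01% Tween-20, 1 mM DTT and 2.5% DMSO final. After ~2 h the reaction was stopped with EDTA. Phospho-peptide was detected overnight with anti-phospho Ser/Thr antibody on Protein A and streptavidin beads, giving IC50.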
# PDGFRaV561D kinase = PDGFRaV561D kinase (Homo sapiens, UniProt P16234, V561D); assay: PDGFRaV561D kinase inhibition assay (LanthaScreen TR-FRET); assay type: biochemical; conditions: read-out: PDGFRa IC50
# Protocol: PDGFRaV561D Kinase Inhibition Assay
# LanthaScreen™ is the detection of Time-Resolved Fluorescence Resonance Energy Transfer (TR-FRET) using lanthanide chelates to measure interactions between various binding partners. The application of TR-FRET to assay kinase activity was first described by Mathis (1995). A TR-FRET assay was used to measure PDGFRaV561D kinase inhibitory activity. The assay panel was run on a Biomek FX liquid handling workstations. To the assay plates containing […] compound or control solutions, 4.5 μL of buffer A (50 mM TRIS-HCl pH 7.4, 2 mM DTT, 0.02% Tween 20, 0.02 mM Na3VO4, H2O nanpure) including a generic concentration of ATP (2 μM f.c.) was added per well, followed by […] of buffer B (4 uM ATP in Buffer A) including a generic concentration of polyEAY (50 nM f.c.), PDGFRaV561D kinase, and divalent cations. Final concentration of kinase and cations were: [PDGFRaV561D kinase]=4.4 nM, [Mn]=10 mM. After 1 hour of incubation the kinase reactions were stopped by the addition of 4.5 μL of stop solution D (50 mM EDTA, 20 mM TRIS-HCl pH 7.4, 0.04% NP-40) immediately followed by 4.5 μL of buffer A (50 mM TRIS-HCl pH 7.4, 2 mM DTT, 0.02% Tween 20, 0.02 mM Na3VO4, H2O nanpure) including the Tb-labeled P-20 antibody to give a total detection volume of […]. After an incubation time of 45 min in the dark, the plates were transferred into the Pherastar fluorescence reader for counting. The effect of compound on the enzymatic activity was obtained from the linear progress curves and determined from one reading (end point measurement).
# [2] = KMS11 cells, cell proliferation, read-out: KMS11-Luc EC50
# PIM2, sequence (Q9P1W9 whole entry): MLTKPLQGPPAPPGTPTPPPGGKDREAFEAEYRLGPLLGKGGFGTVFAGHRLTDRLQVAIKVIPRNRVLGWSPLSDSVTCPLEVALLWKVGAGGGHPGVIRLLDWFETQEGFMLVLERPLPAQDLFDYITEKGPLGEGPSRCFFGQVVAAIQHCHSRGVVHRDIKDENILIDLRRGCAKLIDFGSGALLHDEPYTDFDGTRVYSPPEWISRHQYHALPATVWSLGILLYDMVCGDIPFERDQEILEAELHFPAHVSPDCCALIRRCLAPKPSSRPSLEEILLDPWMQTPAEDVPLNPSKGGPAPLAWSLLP
# PDGFRaV561D kinase, sequence (P16234 24-1089 V561D): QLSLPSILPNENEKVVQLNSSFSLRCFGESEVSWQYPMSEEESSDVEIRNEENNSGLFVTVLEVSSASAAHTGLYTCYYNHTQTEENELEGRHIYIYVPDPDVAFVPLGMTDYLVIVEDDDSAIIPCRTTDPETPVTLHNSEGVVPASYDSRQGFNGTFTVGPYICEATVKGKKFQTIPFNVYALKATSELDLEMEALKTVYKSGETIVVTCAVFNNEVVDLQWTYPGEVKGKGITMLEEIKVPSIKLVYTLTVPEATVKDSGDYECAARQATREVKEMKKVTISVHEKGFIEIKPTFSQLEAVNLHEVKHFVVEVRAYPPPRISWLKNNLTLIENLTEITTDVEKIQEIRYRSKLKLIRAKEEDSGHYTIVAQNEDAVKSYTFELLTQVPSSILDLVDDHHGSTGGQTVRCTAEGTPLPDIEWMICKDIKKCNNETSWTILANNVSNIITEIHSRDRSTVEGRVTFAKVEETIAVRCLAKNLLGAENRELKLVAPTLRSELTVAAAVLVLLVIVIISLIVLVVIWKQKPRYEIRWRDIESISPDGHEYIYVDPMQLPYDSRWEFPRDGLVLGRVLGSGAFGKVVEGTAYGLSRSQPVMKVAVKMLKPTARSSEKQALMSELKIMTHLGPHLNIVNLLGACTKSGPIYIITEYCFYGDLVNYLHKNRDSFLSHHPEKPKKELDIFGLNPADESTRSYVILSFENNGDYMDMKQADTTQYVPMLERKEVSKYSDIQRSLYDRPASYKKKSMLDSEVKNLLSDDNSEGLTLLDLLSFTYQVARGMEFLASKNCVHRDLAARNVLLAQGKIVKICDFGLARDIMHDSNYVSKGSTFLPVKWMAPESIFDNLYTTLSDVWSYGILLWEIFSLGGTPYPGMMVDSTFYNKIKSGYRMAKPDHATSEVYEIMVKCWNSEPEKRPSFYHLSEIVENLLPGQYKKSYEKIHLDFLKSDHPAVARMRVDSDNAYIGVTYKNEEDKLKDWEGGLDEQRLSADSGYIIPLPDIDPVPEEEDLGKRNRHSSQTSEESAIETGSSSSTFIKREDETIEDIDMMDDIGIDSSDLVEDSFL
pIC50 (cABLT315 kinase),pEC50 ([1]; KMS11-Luc cells),"pEC50 [1, 2]",pIC50 (PIM2),pIC50 (PDGFRaV561D kinase),Structure (SMILES)
7.15,7.05,,,,"C=C1[C@@H](O)C[C@@H](c2ccncc2NC(=O)c2nc(-c3ccccc3)cnc2N)OC12CC2 [Example 5, 3-amino-N-(4-((5S,7S)-7-hydroxy-8-methylene-4-oxaspiro[2.5]octan-5-yl)pyridin-3-yl)-6-phenylpyrazine-2-carboxamide]"
5.05,5.95,,,,"C[C@H]1O[C@@H](c2ccncc2NC(=O)c2nc(-c3ccccc3)ncc2N)C[C@@H](O)[C@]1(C)O [Example 32, 5-amino-N-(4-((2R,4R,5S,6R)-4,5-dihydroxy-5,6-dimethyltetrahydro-2H-pyran-2-yl)pyridin-3-yl)-2-phenylpyrimidine-4-carboxamide]"
7.52,6.70,,,,"Nc1ncc(-c2ccccc2)nc1C(=O)Nc1cnccc1[C@H]1C[C@@H](O)[C@H](O)[C@@H](CCl)O1 [Example 36, 3-amino-N-(4-((2R,4R,5S,6S)-6-(chloromethyl)-4,5-dihydroxytetrahydro-2H-pyran-2-yl)pyridin-3-yl)-6-phenylpyrazine-2-carboxamide]"
5.10,< 5.00,,,,"CC[C@H]1O[C@@H](c2ccncc2NC(=O)c2nc(-c3ccccc3)ncc2N)C[C@@H](O)[C@@H]1O [Example 39, 5-amino-N-(4-((2R,4R,5S,6R)-6-ethyl-4,5-dihydroxytetrahydro-2H-pyran-2-yl)pyridin-3-yl)-2-phenylpyrimidine-4-carboxamide]"
6.18,6.00,,,,"C[C@H]1O[C@@H](c2ccncc2NC(=O)c2nc(-c3ccccc3)cnc2N)[C@H](F)[C@@H](O)[C@]1(C)O [Example 58, 3-amino-N-(4-((2S,3R,4S,5S,6R)-3-fluoro-4,5-dihydroxy-5,6-dimethyltetrahydro-2H-pyran-2-yl)pyridin-3-yl)-6-phenylpyrazine-2-carboxamide]"
6.19,5.89,,,,"C[C@@H]1O[C@H](c2ccncc2NC(=O)c2nc(-c3ccccc3)cnc2N)[C@@H](F)[C@H](O)[C@@]1(C)O [Example 63, 3-amino-N-(4-((2R,3S,4R,5R,6S)-3-fluoro-4,5-dihydroxy-5,6-dimethyltetrahydro-2H-pyran-2-yl)pyridin-3-yl)-6-phenylpyrazine-2-carboxamide]"
7.07,6.05,,,,"C[C@H]1O[C@@H](c2ccncc2NC(=O)c2nc(-c3ccccc3)cnc2N)C[C@@H](O)[C@]1(C)O [Example 84, 3-amino-N-(4-((2R,4R,5S,6R)-4,5-dihydroxy-5,6-dimethyltetrahydro-2H-pyran-2-yl)pyridin-3-yl)-6-phenylpyrazine-2-carboxamide]"
,,6.11,5.86,6.85,"CC[C@@H]1O[C@H](c2ccncc2NC(=O)c2nc(-c3ccccc3)cnc2N)C[C@H](N)[C@H]1O [Example 342, 3-amino-N-(4-((2S,4S,5R,6S)-4-amino-6-ethyl-5-hydroxytetrahydro-2H-pyran-2-yl)pyridin-3-yl)-6-phenylpyrazine-2-carboxamide]"
,,6.82,7.31,7.92,"CC[C@H]1O[C@@H](c2ccncc2NC(=O)c2nc(-c3ccccc3)cnc2N)C[C@@H](N)[C@@H]1O [Example 343, 3-amino-N-(4-((2R,4R,5S,6R)-4-amino-6-ethyl-5-hydroxytetrahydro-2H-pyran-2-yl)pyridin-3-yl)-6-phenylpyrazine-2-carboxamide]"
,,6.06,6.97,6.96,"C[C@]1(O)[C@H](N)C[C@H](c2ccncc2NC(=O)c2nc(-c3ccccc3)cnc2N)O[C@@H]1C1CC1 [Example 344, 3-amino-N-(4-((2R,4R,5S,6R)-4-amino-6-cyclopropyl-5-hydroxy-5-methyltetrahydro-2H-pyran-2-yl)pyridin-3-yl)-6-phenylpyrazine-2-carboxamide]"
,,5.50,5.11,5.13,"CC[C@@H]1O[C@H](c2ccncc2NC(=O)c2nc(-c3ccccc3)cnc2N)C[C@H](N)[C@@]1(C)O [Example 345, 3-amino-N-(4-((2S,4S,5R,6S)-4-amino-6-ethyl-5-hydroxy-5-methyltetrahydro-2H-pyran-2-yl)pyridin-3-yl)-6-phenylpyrazine-2-carboxamide]"
,,6.33,7.20,7.14,"Nc1ncc(-c2ccccc2)nc1C(=O)Nc1cnccc1[C@H]1C[C@@H](N)[C@H](O)[C@@H](C2CC2)O1 [Example 346, 3-amino-N-(4-((2R,4R,5S,6R)-4-amino-6-cyclopropyl-5-hydroxytetrahydro-2H-pyran-2-yl)pyridin-3-yl)-6-phenylpyrazine-2-carboxamide]"
,,5.61,5.10,5.05,"C[C@@]1(O)[C@@H](N)C[C@@H](c2ccncc2NC(=O)c2nc(-c3ccccc3)cnc2N)O[C@H]1C1CC1 [Example 347, 3-amino-N-(4-((2S,4S,5R,6S)-4-amino-6-cyclopropyl-5-hydroxy-5-methyltetrahydro-2H-pyran-2-yl)pyridin-3-yl)-6-phenylpyrazine-2-carboxamide]"
,,5.92,6.84,6.82,"CC[C@H]1O[C@@H](c2ccncc2NC(=O)c2nc(-c3ccccc3)cnc2N)C[C@@H](N)[C@]1(C)O [Example 348, 3-amino-N-(4-((2R,4R,5S,6R)-4-amino-6-ethyl-5-hydroxy-5-methyltetrahydro-2H-pyran-2-yl)pyridin-3-yl)-6-phenylpyrazine-2-carboxamide]"
,,6.27,5.56,5.48,"Nc1ncc(-c2ccccc2)nc1C(=O)Nc1cnccc1[C@@H]1C[C@H](N)[C@@H](O)[C@H](C2CC2)O1 [Example 349, 3-amino-N-(4-((2S,4S,5R,6S)-4-amino-6-cyclopropyl-5-hydroxytetrahydro-2H-pyran-2-yl)pyridin-3-yl)-6-phenylpyrazine-2-carboxamide]"
,,6.85,8.05,7.59,"CC(C)(C)[C@H]1O[C@@H](c2ccncc2NC(=O)c2nc(-c3ccccc3)cnc2N)C[C@@H](N)[C@@H]1O [Example 354, 3-amino-N-(4-((2R,4R,5S,6R)-4-amino-6-tert-butyl-5-hydroxytetrahydro-2H-pyran-2-yl)pyridin-3-yl)-6-phenylpyrazine-2-carboxamide]"
,,6.68,5.06,5.04,"CC(C)(C)[C@@H]1O[C@H](c2ccncc2NC(=O)c2nc(-c3ccccc3)cnc2N)C[C@H](N)[C@H]1O [Example 355, 3-amino-N-(4-((2S,4S,5R,6S)-4-amino-6-tert-butyl-5-hydroxytetrahydro-2H-pyran-2-yl)pyridin-3-yl)-6-phenylpyrazine-2-carboxamide]"
,,6.74,7.55,7.28,"CC(C)[C@H]1O[C@@H](c2ccncc2NC(=O)c2nc(-c3ccccc3)cnc2N)C[C@@H](N)[C@@H]1O [Example 356, 3-amino-N-(4-((2R,4R,5S,6R)-4-amino-5-hydroxy-6-isopropyltetrahydro-2H-pyran-2-yl)pyridin-3-yl)-6-phenylpyrazine-2-carboxamide]"
